Assay: Partition coefficients n-octanol/deionized water and n-octanol/PBS
Assay type: physicochemical
Conditions: 24 hours; for Log KOPBS / O/PBS Coefficient (KOPBS): n-octanol/PBS pH 7.4, 37° C.; for Log KOW / O/W Coefficient (KOW): n-octanol/deionized water, 37° C.
Description: The partition coefficients for all somatostatin-fatty acid salts in either n-octanol/deionized water or n-octanol/PBS (pH 7.4) were determined. The partition coefficient is the concentration of Compound A or Compound B in the n-octanol phase divided by the concentration in the aqueous or PBS phase.
An accurately weighed sample of each salt was placed into 4 ml HPLC vials sealed with caps containing pierceable silicone septa and dissolved in 2 ml n-octanol. Two ml of either deionized water or PBS were added to each sample; the vials were vortexed vigorously and incubated at 37° C. with agitation for 24 hours in a shaker-incubator at 400 rpm.
Following incubation, two samples were withdrawn from each vial. Once the layers had fully partitioned, a syringe was used to draw a sample of the aqueous phase or the n-octanol phase. Samples from each phase were diluted appropriately with deionized or methanol prior to HPLC analysis.

Row | Substance | Log KOPBS | O/PBS Coefficient (KOPBS) | Log KOW | O/W Coefficient (KOW)
1 | D-2-Nal-c(Cys-Tyr-D-Trp-Lys-Val-Cys)-Thr-NH2 [Compound A di-nonanoate] | 0.811 | 6.47 | 2.723 | 528.50
2 | [4-(2-hydroxyethyl)]-1-piperazinylacetyl-D-Phe-c(Cys-Tyr-D-Trp-Lys-Abu-Cys)-Thr-NH2 [Compound B di-acetate] | −2.000 | 0.01 | −2.000 | 0.01
3 | D-2-Nal-c(Cys-Tyr-D-Trp-Lys-Val-Cys)-Thr-NH2 [Compound A di-octanoate] | 0.827 | 6.71 | 2.794 | 622.86
4 | D-2-Nal-c(Cys-Tyr-D-Trp-Lys-Val-Cys)-Thr-NH2 [Compound A di-decanoate] | 0.844 | 6.99 | 2.325 | 211.53

Source: patent publication US20130085105A1, “Transdermal Administration Of Peptides” (The Provost, Fellows and Scholars of the College of Holy …, priority 2010, published 2013)
